This is an account of results in US11351172B2, “Pharmaceutical composition and use for applying ribociclib in phosphodiesterase 4-mediated disease treatment of patient and inhibition of phosphodiesterase 4 activity” (Chang Gung University, priority 2019, dated 2022).

The test system of test [1] is Human neutrophils. The test can be described thus: Superoxide anion generation in fMLF-stimulated neutrophils (ferricytochrome c reduction). The class given is cell-based. Conditions: 1 μM, 3 μM and 10 μM; fMLF (0.1 μM)/cytochalasin B (1 μg/ml) stimulated; p<0.001 vs control; n=6; FIG. 2. The procedure: The informed consent to participate which was approved by the Institutional Review Board are signed by the donors. 50 mL of blood was collected from the median cubital vein of each donor by sterile vacutainer, and was used to isolate neutrophils for the following experiments. Human neutrophils (isolated from whole blood of donors) were incubated with DMSO (as solvent, marked as “−” in the groups at X-axis in FIGS. 2A and 2B) or Ribociclib (0.3-10 μM) for 5 minutes, and then stimulated the neutrophils with or without fMLF (0.1 μM)/cytochalasin B (CB, 1 μg/ml) for another 10 minutes to activate the neutrophils. The absorbance (OD550) of the reaction mixture was then measured by a spectrophotometer at OD 550 nm. The reading of OD550 is used to detect the reduction of ferricytochrome c, which indicates the amount of superoxide anion. Cytochalasin B was sold by Sigma-Aldrich, catalog number #2506; fMLF was sold by Sigma-Aldrich, catalog number #454454; model number of the spectrophotometer is HITACHI U-3010.

Test [2] addresses T1, PDE4B (Homo sapiens, UniProt Q07343).
T1 construct: purchased BPS bioscience
The test can be described thus: PDE enzymatic activity, HTRF cAMP dynamic test. The class given is biochemical. Conditions: 3 μM, 10 μM and 30 μM; compared with DMSO control; n=6; FIG. 1B. As for the experimental part: (§1) Enzymatic activities of PDE subtypes were analyzed according to the user manual of HTRF® package insert cAMP dynamic tests (Cisbio bioassays, catalog number 62AM4PEB). Ribociclib was dissolved in DMSO (as solvent) and then added to PDE assay buffer which contains PDE4A, PDE4B, PDE4C, PDE4D, PDE3B or PDE7A (sold by BPS bioscience). The final concentration of Ribociclib was 0.1 to 30 μM. Then, the mixtures were incubated for 10 minutes at 37° C. PDE assay buffer which was added by DMSO (solvent, marked as “−” in FIGS. 1A-1F) instead of Ribociclib was as a control in this experiment. 60 nM of cAMP was added to each reagent and then incubated for 45 minutes at 37° C. After incubation, cAMP-d2 and anti-cAMP-cryptate were added to each reagent and react at room temperature for 1 hour away from light. Finally, the reagents were quantified by the luminometer (TECAN infinite 200 Pro) to detect enzymatic activities of PDE subtypes.
(In general: In TR-FRET formats the signal depends on donor and acceptor labels being close together.)

For test [3], the target named is T2, PDE4D (Homo sapiens, UniProt Q08499).
T2 construct: purchased BPS bioscience
T2 sequence (Q08499 whole entry): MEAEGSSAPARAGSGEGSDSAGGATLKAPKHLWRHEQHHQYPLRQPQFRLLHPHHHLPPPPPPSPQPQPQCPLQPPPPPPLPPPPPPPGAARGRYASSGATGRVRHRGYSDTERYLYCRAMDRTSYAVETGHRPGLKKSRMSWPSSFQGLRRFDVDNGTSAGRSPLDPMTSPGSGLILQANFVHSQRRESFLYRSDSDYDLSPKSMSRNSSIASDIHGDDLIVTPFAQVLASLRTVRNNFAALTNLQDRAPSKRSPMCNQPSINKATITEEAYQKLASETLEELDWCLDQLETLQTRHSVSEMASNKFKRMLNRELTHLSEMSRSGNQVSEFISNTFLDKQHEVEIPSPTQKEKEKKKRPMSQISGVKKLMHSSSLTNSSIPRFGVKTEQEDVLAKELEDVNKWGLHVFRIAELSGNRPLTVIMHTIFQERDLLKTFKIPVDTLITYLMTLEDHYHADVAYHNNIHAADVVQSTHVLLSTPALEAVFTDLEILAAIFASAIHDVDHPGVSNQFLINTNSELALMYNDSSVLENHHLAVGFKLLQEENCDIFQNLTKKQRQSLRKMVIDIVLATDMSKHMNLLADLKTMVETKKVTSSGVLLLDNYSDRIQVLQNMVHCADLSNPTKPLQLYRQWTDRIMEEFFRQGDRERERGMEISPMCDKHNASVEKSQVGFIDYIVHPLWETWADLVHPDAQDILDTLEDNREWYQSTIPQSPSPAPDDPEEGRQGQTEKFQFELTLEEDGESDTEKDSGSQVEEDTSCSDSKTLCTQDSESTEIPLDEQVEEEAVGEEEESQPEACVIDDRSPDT
Kind of test: PDE enzymatic activity, HTRF cAMP dynamic test. The class given is biochemical. The conditions noted are these: 10 μM and 30 μM; compared with DMSO control; n=6; FIG. 1D. As for the experimental part:
as §1

Test [4] addresses T3, PDE4A (Homo sapiens, UniProt P27815).
T3 construct: purchased BPS bioscience
The test can be described thus: PDE enzymatic activity, HTRF cAMP dynamic test. Type of test: biochemical. Conditions: 0.1 μM, 0.3 μM, 1 μM, 3 μM and 10 μM; compared with DMSO control; n=6; FIG. 1A. The procedure:
as §1

The target in test [5] is T4, PDE7A (Homo sapiens, UniProt Q13946).
T4 construct: purchased BPS bioscience
T4 sequence (Q13946 whole entry): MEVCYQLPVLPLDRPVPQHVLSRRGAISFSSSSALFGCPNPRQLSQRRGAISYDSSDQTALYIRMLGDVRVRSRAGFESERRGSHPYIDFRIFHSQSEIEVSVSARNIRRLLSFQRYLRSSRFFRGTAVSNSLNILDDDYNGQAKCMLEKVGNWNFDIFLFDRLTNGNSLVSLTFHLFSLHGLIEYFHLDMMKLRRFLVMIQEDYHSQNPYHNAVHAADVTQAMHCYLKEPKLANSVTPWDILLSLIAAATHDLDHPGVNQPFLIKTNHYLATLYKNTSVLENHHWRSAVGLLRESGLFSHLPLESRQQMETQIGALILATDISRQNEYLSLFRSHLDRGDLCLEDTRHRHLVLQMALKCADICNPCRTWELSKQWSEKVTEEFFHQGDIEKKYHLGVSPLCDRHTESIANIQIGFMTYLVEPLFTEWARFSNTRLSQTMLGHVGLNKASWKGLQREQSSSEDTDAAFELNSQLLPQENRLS
Kind of test: PDE enzymatic activity, HTRF cAMP dynamic test. Type of test: biochemical. The conditions noted are these: 0.1 to 30 μM; FIG. 1F. As for the experimental part:
as §1

The target of test [6] is T5, PDE4C (Homo sapiens, UniProt Q08493).
T5 construct: purchased BPS bioscience
T5 sequence (Q08493 whole entry): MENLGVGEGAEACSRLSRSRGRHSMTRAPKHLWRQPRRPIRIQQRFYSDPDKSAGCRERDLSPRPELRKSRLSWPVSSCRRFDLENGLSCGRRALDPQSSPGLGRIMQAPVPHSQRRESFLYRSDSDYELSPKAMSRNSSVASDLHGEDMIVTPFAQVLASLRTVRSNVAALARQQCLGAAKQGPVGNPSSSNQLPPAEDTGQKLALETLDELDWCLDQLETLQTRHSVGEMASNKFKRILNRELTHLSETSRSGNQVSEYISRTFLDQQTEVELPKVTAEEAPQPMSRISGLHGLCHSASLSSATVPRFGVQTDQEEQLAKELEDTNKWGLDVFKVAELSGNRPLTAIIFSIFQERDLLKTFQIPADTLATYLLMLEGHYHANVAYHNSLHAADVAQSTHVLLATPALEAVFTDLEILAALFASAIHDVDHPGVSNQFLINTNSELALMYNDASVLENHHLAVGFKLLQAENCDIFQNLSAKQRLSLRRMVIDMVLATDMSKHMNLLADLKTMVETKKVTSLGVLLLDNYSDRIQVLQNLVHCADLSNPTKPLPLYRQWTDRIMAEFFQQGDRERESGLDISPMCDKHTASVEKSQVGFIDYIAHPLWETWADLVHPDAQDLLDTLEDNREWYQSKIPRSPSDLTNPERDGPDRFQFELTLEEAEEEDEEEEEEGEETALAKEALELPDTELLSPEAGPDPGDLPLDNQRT
The test can be described thus: PDE enzymatic activity, HTRF cAMP dynamic test. Type of test: biochemical. Conditions: 3 μM, 10 μM and 30 μM; compared with DMSO control; n=6; FIG. 1C. As for the experimental part:
as §1

The target in test [7] is T6, PDE3B (Homo sapiens, UniProt Q13370).
T6 construct: purchased BPS bioscience
T6 sequence (Q13370 whole entry): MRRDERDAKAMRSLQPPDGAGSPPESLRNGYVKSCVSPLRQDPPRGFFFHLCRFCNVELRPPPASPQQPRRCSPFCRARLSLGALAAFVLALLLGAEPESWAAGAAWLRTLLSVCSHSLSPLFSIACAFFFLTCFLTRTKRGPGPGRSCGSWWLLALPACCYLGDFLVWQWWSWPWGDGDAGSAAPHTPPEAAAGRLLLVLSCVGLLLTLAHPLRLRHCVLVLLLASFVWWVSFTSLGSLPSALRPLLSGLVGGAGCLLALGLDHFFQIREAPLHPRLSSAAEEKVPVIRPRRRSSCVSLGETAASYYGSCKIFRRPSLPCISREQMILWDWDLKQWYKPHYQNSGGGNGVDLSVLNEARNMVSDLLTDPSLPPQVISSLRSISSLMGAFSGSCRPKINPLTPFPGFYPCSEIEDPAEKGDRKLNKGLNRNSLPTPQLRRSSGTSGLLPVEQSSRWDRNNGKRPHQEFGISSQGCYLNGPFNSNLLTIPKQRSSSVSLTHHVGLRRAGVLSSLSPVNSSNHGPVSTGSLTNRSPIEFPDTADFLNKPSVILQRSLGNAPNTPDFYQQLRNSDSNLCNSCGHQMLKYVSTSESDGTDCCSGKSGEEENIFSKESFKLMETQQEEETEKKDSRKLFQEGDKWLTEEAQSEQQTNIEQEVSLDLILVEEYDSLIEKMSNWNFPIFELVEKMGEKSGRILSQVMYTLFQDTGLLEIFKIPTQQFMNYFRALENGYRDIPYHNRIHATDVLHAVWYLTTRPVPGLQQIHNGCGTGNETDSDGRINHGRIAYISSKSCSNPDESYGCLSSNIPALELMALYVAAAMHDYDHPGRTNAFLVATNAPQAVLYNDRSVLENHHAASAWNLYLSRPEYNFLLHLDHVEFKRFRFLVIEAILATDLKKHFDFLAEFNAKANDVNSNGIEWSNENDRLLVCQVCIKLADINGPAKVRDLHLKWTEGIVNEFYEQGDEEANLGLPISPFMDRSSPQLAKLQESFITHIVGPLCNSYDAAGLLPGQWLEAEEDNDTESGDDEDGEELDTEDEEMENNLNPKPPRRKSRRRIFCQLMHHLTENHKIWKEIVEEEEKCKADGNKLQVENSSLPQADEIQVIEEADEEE
The test can be described thus: PDE enzymatic activity, HTRF cAMP dynamic test. The class given is biochemical. The conditions noted are these: 0.1 to 30 μM; FIG. 1E. The procedure: as §1

The subject of test [8] is IMQ-treated mice. The test can be described thus: Psoriasis-like symptoms in IMQ-treated mice. The class given is in vivo, BALB/c mice. Conditions: applied on back skin once per day for 5 days before IMQ, FIG. 3. As for the experimental part: 250 μg or 500 μg of Ribociclib was dissolved in 50 μl of 0.5% (w/v) methylcellulose 400 solution to make a pharmaceutical composition. The Ribociclib concentration of the pharmaceutical composition was 250 μg/50 μl or 500 μg/50 μl and used in the subsequent animal experimental examples 4 and 5. Male BALB/c mice (7-9 weeks of age, the body weight of each mouse is about 25 g) were divided into different groups, and each group has 6 mice. Each mouse was epilation on the back and then treated with 50 μl of solvent (0.5% methylcellulose 400) or 50 μl of the pharmaceutical composition prepared in example 3 (the concentration of Ribociclib is 10 or 20 mg/kg of body weight) by applying on the nude back skin before topical treatment of imiquimod (IMQ, sold by 3M Health Care Limited). And then applying with or without IMQ on the nude back skin of mice to cause psoriasis-like symptom. Each treatment was given once per day for 5 consecutive days. The mice which applying solvent and IMQ is played as the control. The mice which merely applying solvent is played as the blank.

T1 sequence (Q07343 whole entry): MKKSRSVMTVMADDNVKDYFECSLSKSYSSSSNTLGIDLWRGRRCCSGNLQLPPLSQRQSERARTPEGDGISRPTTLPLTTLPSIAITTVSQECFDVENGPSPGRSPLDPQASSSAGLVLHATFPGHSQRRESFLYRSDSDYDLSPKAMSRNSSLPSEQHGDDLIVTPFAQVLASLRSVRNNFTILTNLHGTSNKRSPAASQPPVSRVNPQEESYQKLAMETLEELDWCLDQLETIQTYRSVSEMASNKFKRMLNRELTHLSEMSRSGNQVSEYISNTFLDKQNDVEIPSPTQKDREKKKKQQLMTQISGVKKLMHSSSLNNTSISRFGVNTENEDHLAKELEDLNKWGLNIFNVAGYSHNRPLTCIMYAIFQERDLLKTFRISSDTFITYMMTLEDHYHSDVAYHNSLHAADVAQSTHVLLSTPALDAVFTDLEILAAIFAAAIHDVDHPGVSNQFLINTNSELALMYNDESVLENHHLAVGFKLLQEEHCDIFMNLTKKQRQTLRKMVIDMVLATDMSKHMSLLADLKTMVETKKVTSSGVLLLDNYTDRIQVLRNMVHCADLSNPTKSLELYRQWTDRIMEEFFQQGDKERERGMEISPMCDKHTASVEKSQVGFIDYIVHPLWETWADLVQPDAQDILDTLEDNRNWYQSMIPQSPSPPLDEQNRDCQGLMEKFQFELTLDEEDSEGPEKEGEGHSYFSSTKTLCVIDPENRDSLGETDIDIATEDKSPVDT
T3 sequence (P27815 whole entry): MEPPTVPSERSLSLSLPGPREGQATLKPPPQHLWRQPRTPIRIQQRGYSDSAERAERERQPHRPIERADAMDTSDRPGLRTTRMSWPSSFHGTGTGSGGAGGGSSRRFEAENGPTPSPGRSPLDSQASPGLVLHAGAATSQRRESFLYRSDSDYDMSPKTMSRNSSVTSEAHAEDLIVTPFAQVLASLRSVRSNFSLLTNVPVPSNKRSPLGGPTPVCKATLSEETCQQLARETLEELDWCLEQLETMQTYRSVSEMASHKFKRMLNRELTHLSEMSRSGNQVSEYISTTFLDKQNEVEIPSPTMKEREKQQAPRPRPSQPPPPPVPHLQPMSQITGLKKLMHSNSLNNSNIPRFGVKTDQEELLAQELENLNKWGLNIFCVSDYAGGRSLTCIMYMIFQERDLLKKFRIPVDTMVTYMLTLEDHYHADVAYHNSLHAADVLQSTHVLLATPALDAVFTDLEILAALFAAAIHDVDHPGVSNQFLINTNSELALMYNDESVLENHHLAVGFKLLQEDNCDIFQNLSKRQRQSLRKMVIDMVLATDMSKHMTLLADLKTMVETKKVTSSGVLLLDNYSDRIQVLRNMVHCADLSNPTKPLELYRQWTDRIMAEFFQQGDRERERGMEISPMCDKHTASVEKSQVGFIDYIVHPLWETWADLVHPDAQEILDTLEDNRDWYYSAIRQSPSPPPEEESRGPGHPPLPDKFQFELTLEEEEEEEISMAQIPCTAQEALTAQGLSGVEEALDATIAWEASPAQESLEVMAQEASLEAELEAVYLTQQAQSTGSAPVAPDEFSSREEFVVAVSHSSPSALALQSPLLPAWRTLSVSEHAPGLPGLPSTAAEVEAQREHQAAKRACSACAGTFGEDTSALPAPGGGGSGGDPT

With `CN(C)C(=O)c1cc2cnc(Nc3ccc(N4CCNCC4)cn3)nc2n1C1CCCC1` [Ribociclib, 7-Cyclopentyl-N,N-dimethyl-2-{[5-(1-piperazinyl)-2-pyridinyl]amino}-7H-pyrrolo[2,3-d]pyrimidine-6-carboxamide], the “generation of superoxide anion” value in test [1] was “significantly restrict the generation of superoxide anion”. Further, in test [2], the PDE4B activity entry is reported as “significantly inhibit PDE4B activity”. For the same compound, the PDE4D activity result in test [3] was “significantly inhibit PDE4D activity”. The PDE4A activity result in test [4] is given as “significantly inhibit PDE4A activity”. In addition, in test [5], the PDE7A activity result is on record as “would not inhibit”. In addition, the PDE4C activity entry in test [6] was “significantly inhibit PDE4C activity”. The PDE3B activity result in test [7] was “would not inhibit”. In addition, the psoriasis-like symptoms entry in test [8] (10 mg/kg of the body weight) and in test [8] (20 mg/kg of the body weight) was “can improve or cure the psoriasis-like symptoms” in each case.
